Data as given in patent publication US12527862B2, “Bactericidal/permeability increasing protein for use in a method of immunization, preferably as an adjuvant in a method of vaccination” (UNIVERSITÄT REGENSBURG, priority 2018, dated 2026).

How the values were obtained:
BPI [1] = assay: MicroScale Thermophoresis (MST) binding of ligands to BPI; set-up: species or system human; details: MST, 0.196-6,436 nM Pam3CSK4 (FIG. 5A)
Protocol: (§1) BPIN (A) and rBPI were labeled with NT647 in PBS pH 7.4 (Monolith NT™ Protein Labeling Kit RED-NHS, NanoTemper Technologies, Munich, Germany). Concentration of labeled protein was determined using the NanoDrop (ThermoScientific, Wilmington, NC, USA) and Bradford assay (Promega, Mannheim, Germany). MST binding experiments were carried out with 5 nM labeled protein in binding buffer (10 mM HEPES pH 7.4, 150 mM NaCl, 0.1% Tween) with 0.196-6,436 nM of Pam3CSK4 (bLP), or 0.61-20,000 nM of LTA SPΔlgt (LTA), or >0.61-20,000 nM WTA SPΔlgt (WTA) at 20%-40% MST power, 20% LED power in premium capillaries on a Monolith NT.115 pico device at 25° C. (NanoTemper Technologies, Munich, Germany). Pam3CSK4, (bLP) was obtained from EMC Microcollections GmbH (Tübingen, Germany), LTA and WTA were prepared as published previously. MST timetraces were recorded, and the temperature jump and thermophoresis or thermophoresis was analyzed. Binding graphs of each independent experiment were normalized to the fraction bound.
(§2) MST was performed as described for example 5. PiLAM and PiLM were ordered from Invivogen (San Diego, CA, USA). BPI binding assays were performed by incubating Streptavidin-coated 96-well plates (Nunc™ Immobilizer™ Streptavidin F96 clear, Thermo Fisher Scientific, Waltham, MA, USA) with LPS biotin (2 μg/ml) in PBS overnight at 23° C. with gentle agitation. After washing with assay buffer (150 mM NaCl, 50 mM HEPES, Sigma Aldrich, Taufkirchen, Germany) containing 0.01% Casein, plates were blocked with 10 g/l BSA (Sigma Aldrich, Taufkirchen, Germany) at 37° C. and washed again. Thereafter, ligands were preincubated with 20 nM BPI in assay buffer containing 1 g/l BSA for 30 min and loaded onto the plates. Bound BPI was detected by murine anti-human BPI monoclonal antibody (Cat.-No. HM2042, Hycult Biotech, Uden, Netherlands) and HRP-conjugated rabbit anti-mouse IgG (Cat.-No. 315-035-048, Dianova, Hamburg, Germany). […] After addition of 1 N HCl, absorbance was measured at 450 nm. Absorbance indicates binding, the higher the absorbance the higher the binding of BPI to the coated well. […]

BPI [2] = target: T1, BPI (Homo sapiens, UniProt P17213); assay: as above; details: 5 nM labeled protein, 25° C. (FIGS. 5A, 5C, 8A, 8B)
T1 construct: aa32-487 of the huBPI respectively aa28-483 of muBPI; HA signal peptide (N); made in house; host or cells: HEK293T
T1 sequence (P17213 32-487): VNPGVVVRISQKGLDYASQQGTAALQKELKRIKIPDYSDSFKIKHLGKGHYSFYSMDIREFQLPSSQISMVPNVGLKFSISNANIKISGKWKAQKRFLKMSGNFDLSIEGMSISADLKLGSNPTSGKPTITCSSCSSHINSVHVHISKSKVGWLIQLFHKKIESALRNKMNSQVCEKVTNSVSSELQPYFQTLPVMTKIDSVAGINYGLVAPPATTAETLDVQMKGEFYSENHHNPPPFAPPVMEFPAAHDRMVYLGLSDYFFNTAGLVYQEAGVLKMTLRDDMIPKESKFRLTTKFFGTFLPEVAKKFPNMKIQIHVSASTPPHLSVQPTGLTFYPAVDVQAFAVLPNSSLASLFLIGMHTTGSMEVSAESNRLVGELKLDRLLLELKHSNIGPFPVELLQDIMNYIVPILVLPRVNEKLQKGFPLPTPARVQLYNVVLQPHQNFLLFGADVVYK
Protocol: as §1, §2

BMDCs = assay: Cytokine protein secretion by BMDCs (Luminex); format: cell-based, C57BL/6J mice; details: Zymd 5 μg/ml, bLP 10 nM; Luminex, n>7, 4h (FIG. 3)
Protocol: All methods mentioned in this example were carried out as described in the preceding examples. Cells were stimulated with Zymosan depleted (Zymd, 5 μg/ml) from Invivogen (San Diego, CA, USA) or (R)-Pam3CSK4 (bLP, 10 nM) from EMC Microcollections GmbH (Tübingen, Germany). Protein secretion analysis was performed using the supernatants.
To quantify the interleukin and chemokine protein-level after stimulation with huBPI, Zymd, and (R)-Pam CSK4, a multiplex-system was used and determined by using the Luminex® technology (Austin, TX, USA). The cytokines were captured with anti-mouse capture-antibodies and detected by biotinylated antibodies specific for the respective protein (Table 3). Protein concentrations were calculated using a reconstituted standard curve of the analyzed proteins (SM039, #LMC4031, Lot #1438354; Thermo Fisher Scientific; Standard Mix 1a, #EPX010-20603-901, Lot #111709101, eBioscience).

BPI [3] = target: T1, BPI; assay: BPI binding assay on Streptavidin-coated plates (biotinylated LPS or ODN 1826), direct and competitive
Protocol: FIG. 7 depicts the binding of BPI to TLR ligands. […] Competition of binding was assessed for different variants of CpG ODNs ([…]) and the TLR3 agonist Poly(I:C) in ODN 1826 coated plates.
Streptavidin-coated plates were incubated with biotinylated LPS (n=3). Competition of binding was assessed for lipoarabinomannan as exemplified for phosphatidyl-inositol lipoarabinomannan (PiLAM).
MST was performed as described for example 5. PiLAM and PiLM were ordered from Invivogen (San Diego, CA, USA). BPI binding assays were performed by incubating Streptavidin-coated 96-well plates (Nunc™ Immobilizer™ Streptavidin F96 clear, Thermo Fisher Scientific, Waltham, MA, USA) with LPS biotin (2 μg/ml) in PBS overnight at 23° C. with gentle agitation. After washing with assay buffer (150 mM NaCl, 50 mM HEPES, Sigma Aldrich, Taufkirchen, Germany) containing 0.01% Casein, plates were blocked with 10 g/l BSA (Sigma Aldrich, Taufkirchen, Germany) at 37° C. and washed again. Thereafter, ligands were preincubated with 20 nM BPI in assay buffer containing 1 g/l BSA for 30 min and loaded onto the plates. Bound BPI was detected by murine anti-human BPI monoclonal antibody (Cat.-No. HM2042, Hycult Biotech, Uden, Netherlands) and HRP-conjugated rabbit anti-mouse IgG (Cat.-No. 315-035-048, Dianova, Hamburg, Germany). TMB (BD OptEIA™ TMB Substrate Reagent Set, BD Biosciences, Heidelberg, Germany) was used as a substrate for peroxidase. After addition of 1 N HCl, absorbance was measured at 450 nm. Absorbance indicates binding, the higher the absorbance the higher the binding of BPI to the coated well. Preincubation with a BPI ligand inhibits binding in a concentration-dependent manner.

[4] = tested on: bone-marrow derived dendritic cells; assay: Microarray gene expression analysis in BMDCs; format: cell-based, C57BL/6J mice; details: 200 nM huBPI or muBPI, 4 h, microarray (FIG. 2A)
Protocol: All methods mentioned in this example were carried out as described in Example 1. BMDCs were seeded into a tissue-culture-treated 96-well plate in VLE-RPMI 1640 media (10% FCS, 10% Penicillin-Streptomycin, 50 μM β-Mercaptoethanol) and stimulated with 200 nM huBPI or muBPI. 4 h after stimulation, gene expression analysis was performed by microarray analysis (Affymetrix Mouse Gene 2.0 ST, FIGS. 2A and 2B).

(R)-Pam3CSK4 [bLP]
Affinity of BPI to bLP (BPI [1]): within a nanomolar range | binding to BPI (MST) (BPI [2]): shown to bind to bLPs | stimulatory effect on the expression of IL-6 (IL-6 level), BPI vs Zymd vs bLP (BMDCs): similar

ODN 1826
binding of BPI to plate-bound biotinylated ligand (BPI [3]; Streptavidin-coated plates, absorbance 450 nm, n=4 (FIG. 7A)): Binding of BPI to both LPS and CpG ODN was observed

phosphatidyl-inositol lipoarabinomannan [PiLAM]
competition of BPI binding in biotinylated LPS coated plates (BPI [3]; LPS biotin 2 μg/ml, 20 nM BPI, n=3 (FIG. 8C)): binding is conserved

phosphatidyl-inositol lipomannan [PiLM]
binding to BPI (MST) (BPI [2]): Binding of phosphatidyl-inositol lipomannan (PiLM) to BPI is shown

polyinosinic: polycytidylic acid [Poly(I:C)]
competition of BPI binding in ODN 1826 coated plates (BPI [3]; biotinylated ODN 1826, n=3 (FIG. 7B)): competitive binding was present

B1: murine BPI: recombinant murine BPI, aa28-483 of muBPI, expressed in HEK293T cells (protein, listed as Mus musculus)
chain: TDPGFVAMISQKGLDFACQQGVVELQKELQAISVPDFSGVFKIKHLGKGSYEFYSMAVDGFHIPNPKIEMLPSDGLRVFIKDASIKINGKWMSRKNFLKAGGNFELSIQGVSISTDLILGSDSSGHITTICSNCDSHIDSVHIKISGSMLGWLIRLFHRKIETSLKNIIYKKICKIVRDSVSSKLQPYLKTLSVITRVDDVTSVDYSLLAPLTTTNQFLEGQLKGEFFWRGHRDPLPIHPPVMRFVPNGAYMVCMGISDYFFNTEVLAYQQSGTLKMTLGGQLLSNNGRFQLNTDFLRTFLPKVAKMFPSMGVQLLISAPVPVHLSIQPSGLSFNPKLETQAFVVLPNASLVPLFVLGMKTNASLEVDAEENRLVGEMKLGSRWLLELKESKFGPFKVEYLEDVINYLVSTLVLPKINERLRRGFPLPLPAGIRFSHFTFYPYQNFLLLEADLHLI
immunostimulatory effect on BMDCs (gene expression) [4]: shows an immunostimulatory effect on BMDCs
